Read-outs that look alike come from different tables or passages of the source. Values belong to the molecule of their own block, whether it stands above or below them.
Experiments:
Type in all cases: cell-based
eIF2B mutant B5 R195H = test: ATF4-Luc assay, VWMD eIF2B mutant HEK293T ATF4-Fluc cells, B5 R195H; conditions: Homo sapiens, HEK-293T
Description: (§1) In order to test exemplary compounds of the invention in a cellular context, a stable VWMD cell line was first constructed. The ATF4 reporter was prepared by fusing the human full-length ATF4 5′-UTR (NCBI Accession No. BC022088.2) in front of the firefly luciferase (FLuc) coding sequence lacking the initiator methionine as described in Sidrauski et al (eLife 2013). The construct was used to produce recombinant retroviruses using standard methods and the resulting viral supernatant was used to transduce HEK293T cells, which were then subsequently selected with puromycin to generate a stable cell line.
(§2) HEK293T cells carrying the ATF4 luciferase reporter were plated on polylysine coated 384-well plates (Greiner Bio-one) at 30,000 cells per well. Cells were treated the next day with 1 μg/mL tunicamycin and 200 nM of a compound of Formula (I) for 7 hours. Luminescence was measured using One Glo (Promega) as specified by the manufacturer. Cells were maintained in DMEM with L-glutamine supplemented with 10% heat-inactivated FBS (Gibco) and Antibiotic-Antimycotic solution (Gibco).
(§3) VWMD mutations were introduced into the genome of the HEK293T ATF4-Fluc stable cell lines by using Gene Art CRISPR nuclease vector with OFP Reporter kit (ThermoFisher; see Table 3 below). Guide RNAs were designed using the CRISPR Design Tool (http://crispr.mit.edu) and ligated into the CRISPR OFP Nuclease Vector. To obtain homology directed repair (HDR) incorporating VWMD point mutations in the genome, 150 bp ssDNA ultramer oligos were synthesized by Integrated DNA Technologies containing specific mutations of interest. In addition to the VWMD mutations, the ssDNA HDR templates contained a silent mutation to the PAM site of the CRISPR gRNA sequence (to avoid further Cas9 cutting) and 75 bp of homology on each side of the mutation.
(§4) HEK293T ATF4-Fluc cells were transfected with 500 ng of the CRISPR OFP Nuclease Vector and 1 μL of 10 μM ssDNA HDR template using lipofectamine 3000 (ThermoFisher) or SF Cell Line 4D-nucleofector X Kit (Lonza) according to the manufacturer's instructions. After 2-3 days of recovery, single cells were sorted for positive OFP expression on a FACS Aria II (BD Biosciences) into wells of a 96 well plate and allowed to recover for 1-2 weeks.
(§5) The resulting clones were surveyed for CRISPR editing and HDR by harvesting the genomic DNA with the PureLink Genomic DNA kit (ThermoFisher), amplifying a […] locus near the editing site, and sequencing the amplicon. […] Typical clones obtained were hemizygous for the VWMD point mutation, with one or two alleles harboring the desired mutation, and the remaining alleles knocked out (edited to produce a premature stop codon).

eIF2B mutant B1 V184 = test: ATF4-Luc assay, VWMD eIF2B mutant HEK293T ATF4-Fluc cells, B1 V184; conditions: Homo sapiens, HEK-293T
Description: as §1, §2, §3, §4, §5

eIF2B mutant B4 R483W = test: ATF4-Luc assay, VWMD eIF2B mutant HEK293T ATF4-Fluc cells, B4 R483W; conditions: Homo sapiens, HEK-293T
Description: as §1, §2, §3, §4, §5

eIF2B mutant B4 R357W = test: ATF4-Luc assay, VWMD eIF2B mutant HEK293T ATF4-Fluc cells, B4 R357W; conditions: Homo sapiens, HEK-293T
Description: as §1, §2, §3, §4, §5

eIF2B mutant B3 I346T = test: ATF4-Luc assay, VWMD eIF2B mutant HEK293T ATF4-Fluc cells, B3 I346T; conditions: Homo sapiens, HEK-293T
Description: as §1, §2, §3, §4, §5

eIF2B mutant B3 H341Q = test: ATF4-Luc assay, VWMD eIF2B mutant HEK293T ATF4-Fluc cells, B3 H341Q; conditions: Homo sapiens, HEK-293T
Description: as §1, §2, §3, §4, §5

eIF2B mutant B5 R113H = test: ATF4-Luc assay, VWMD eIF2B mutant HEK293T ATF4-Fluc cells, B5 R113H; conditions: Homo sapiens, HEK-293T
Description: as §1, §2, §3, §4, §5

[1] = test system: ATF4 luciferase reporter in HEK293T cells; test: ATF4-Luc assay, HEK293T cells carrying the ATF4 luciferase reporter (in vitro model of VWMD); conditions: Homo sapiens, HEK-293T, read-out: ATF4-Luc EC50
Description: as §1, §2

[2] = HEK293T ATF4 luciferase reporter cells, 1 μg/mL tunicamycin, 7 hours

EC50 (eIF2B mutant B5 R195H): > 2000 nM
EC50 (eIF2B mutant B1 V184): > 2000 nM
EC50 (eIF2B mutant B4 R483W): > 2000 nM
EC50 (eIF2B mutant B4 R357W): > 2000 nM
EC50 (eIF2B mutant B3 I346T): > 2000 nM
EC50 (eIF2B mutant B3 H341Q): > 2000 nM
EC50 (eIF2B mutant B5 R113H): > 2000 nM
SMILES: Cc1noc(COCC(=O)NC23CC(NC(=O)COc4ccc(Cl)c(F)c4)(C2)C3)n1 [Compound 217, 2-(4-chloro-3-fluorophenoxy)-N-(3-{2-[(3-methyl-1,2,4-oxadiazol-5-yl)methoxy]acetamido}bicyclo[1.1.1]pentan-1-yl)acetamide]

EC50 (eIF2B mutant B5 R195H): < 10 nM
EC50 (eIF2B mutant B1 V184): < 10 nM
EC50 (eIF2B mutant B4 R483W): < 10 nM
EC50 (eIF2B mutant B4 R357W): < 10 nM
EC50 (eIF2B mutant B3 I346T): < 10 nM
EC50 (eIF2B mutant B3 H341Q): < 10 nM
EC50 (eIF2B mutant B5 R113H): < 10 nM
SMILES: O=C(COc1ccc(Cl)cc1)NC12CC(NC(=O)COc3ccc(Cl)cc3)(C1)C2 [Compound 112, N,N′-(bicyclo[1.1.1]pentane-1,3-diyl)bis[2-(4-chlorophenoxy)acetamide]]

EC50 (eIF2B mutant B5 R195H): < 10 nM
EC50 (eIF2B mutant B1 V184): < 10 nM
EC50 (eIF2B mutant B4 R483W): < 10 nM
EC50 (eIF2B mutant B4 R357W): < 10 nM
EC50 (eIF2B mutant B3 I346T): < 10 nM
EC50 (eIF2B mutant B3 H341Q): < 10 nM
EC50 (eIF2B mutant B5 R113H): < 10 nM
SMILES: O=C(COc1ccc(Cl)c(F)c1)NC12CCC(NC(=O)COc3ccc(Cl)c(F)c3)(CC1)[C@H](O)C2 [Compound 298, N,N′-[(2R)-2-hydroxybicyclo[2.2.2]octane-1,4-diyl]bis[2-(4-chloro-3-fluorophenoxy)acetamide]]
EC50 [1, 2]: < 10 nM

SMILES: O=C(COc1ccc(Cl)c(F)c1)NC12CCC(NC(=O)COc3ccc(C(F)(F)F)nc3)(CC1)[C@@H](F)C2 [Compound 373, 2-(4-chloro-3-fluorophenoxy)-N-[(3S)-3-fluoro-4-(2-{[6-(trifluoromethyl)pyridin-3-yl]oxy}acetamido)bicyclo[2.2.2]octan-1-yl]acetamide]
EC50 [1, 2]: 50 to 250 nM

SMILES: O=C(CCn1ncc(Cl)cc1=O)NC12CC(NC(=O)COc3ccc(Cl)c(F)c3)(C1)C2 [Compound 104, N-{3-[2-(4-chloro-3-fluorophenoxy)acetamido]bicyclo[1.1.1]pentan-1-yl}-3-(4-chloro-6-oxopyridazin-1(6H)-yl)propanamide]
EC50 [1, 2]: 250 to 500000 nM

EC50 (eIF2B mutant B5 R195H): 10 to 50 nM
EC50 (eIF2B mutant B1 V184): 50 to 250 nM
EC50 (eIF2B mutant B4 R483W): < 10 nM
EC50 (eIF2B mutant B4 R357W): 10 to 50 nM
EC50 (eIF2B mutant B3 I346T): < 10 nM
EC50 (eIF2B mutant B3 H341Q): 10 to 50 nM
EC50 (eIF2B mutant B5 R113H): 10 to 50 nM
SMILES: O=C(COc1ccc(C(F)(F)F)nc1)NC12CC(NC(=O)COc3ccc(Cl)c(F)c3)(C1)C2 [Compound 175, 2-(4-chloro-3-fluorophenoxy)-N-[3-(2-{[6-(trifluoromethyl)pyridin-3-yl]oxy}acetamido)bicyclo[1.1.1]pentan-1-yl]acetamide]

SMILES: Cc1cc(Cl)ncc1OCC(=O)NC12CC(NC(=O)COc3ccc(Cl)c(F)c3)(C1)C2 [Compound 243, 2-(4-chloro-3-fluorophenoxy)-N-(3-{2-[(6-chloro-4-methylpyridin-3-yl)oxy]acetamido}bicyclo[1.1.1]pentan-1-yl)acetamide]
EC50 [1, 2]: 250 to 500000 nM

SMILES: O=C(COc1ccc(Cl)c(F)c1)NC12CCC(NCCOc3ccc(Cl)c(Cl)c3)(CC1)CC2O (centres unmarked) [Compound 337, 2-(4-chloro-3-fluorophenoxy)-N-(4-{[2-(3,4-dichlorophenoxy)ethyl]amino}-2-hydroxybicyclo[2.2.2]octan-1-yl)acetamide]
EC50 [1, 2]: < 10 nM

SMILES: O=C(COc1ccc(Cl)c(F)c1)NC12CCC(NC(=O)COc3ccc(C(F)(F)F)nc3)(CC1)[C@H](O)C2 (single isomer, unassigned) [Compound 302]
EC50 [1, 2]: < 10 nM

SMILES: CC(C)(C)c1ccc(OCC(=O)NC23CCC(NC(=O)COc4ccc(Cl)c(F)c4)(CC2)C[C@@H]3O)cc1 [Compound 506, 2-(4-tert-butylphenoxy)-N-{(2S)-4-[2-(4-chloro-3-fluorophenoxy)acetamido]-2-hydroxybicyclo[2.2.2]octan-1-yl}acetamide]
EC50 [1, 2]: 250 to 500000 nM

SMILES: CC(O)(c1ccc(OCC(=O)NC23CC(NC(=O)COc4ccc(Cl)c(F)c4)(C2)C3)cc1)C(F)(F)F (centres unmarked) [Compound 413, 2-(4-chloro-3-fluorophenoxy)-N-(3-{2-[4-(1,1,1-trifluoro-2-hydroxypropan-2-yl)phenoxy]acetamido}bicyclo[1.1.1]pentan-1-yl)acetamide]
EC50 [1, 2]: 250 to 500000 nM

SMILES: NCc1ccc(OCC(=O)NC23CC(NC(=O)COc4ccc(Cl)c(F)c4)(C2)C3)cn1 [Compound 259, 2-{[6-(aminomethyl)pyridin-3-yl]oxy}-N-{3-[2-(4-chloro-3-fluorophenoxy)acetamido]bicyclo[1.1.1]pentan-1-yl}acetamide]
EC50 [1, 2]: 250 to 500000 nM

SMILES: O=C(COc1ccc(Cl)c(F)c1)NC12CC(NC(=O)Oc3ccc(Cl)cc3)(C1)C2 [Compound 434, 4-chlorophenyl {3-[2-(4-chloro-3-fluorophenoxy)acetamido]bicyclo[1.1.1]pentan-1-yl}carbamate]
EC50 ([1]; 7 h): 250 to 500000 nM

SMILES: O=C(CCOc1cccc(Cl)c1)NC12CC(NC(=O)COc3ccc(Cl)c(Cl)c3)(C1)C2 [Compound 169, 3-(3-chlorophenoxy)-N-{3-[2-(3,4-dichlorophenoxy)acetamido]bicyclo-[1.1.1]pentan-1-yl}propanamide]
EC50 [1, 2]: 250 to 500000 nM

SMILES: O=C(COc1ccc(Cl)c(F)c1)NC12CC(NC(=O)OCCCc3cccc(Cl)c3)(C1)C2 [Compound 166, 3-(3-chlorophenyl)propyl {3-[2-(4-chloro-3-fluorophenoxy)acetamido]-bicyclo[1.1.1]pentan-1-yl}carbamate]
EC50 [1, 2]: 250 to 500000 nM

SMILES: Cc1ccc(COCC(=O)NC23CC(NC(=O)COc4ccc(Cl)c(F)c4)(C2)C3)cc1 [Compound 144, 2-(4-chloro-3-fluorophenoxy)-N-(3-{2-[(4-methylphenyl)methoxy]acetamido}-bicyclo[1.1.1]pentan-1-yl)acetamide]
EC50 [1, 2]: 250 to 500000 nM
